According to US7524851B2 (Robert Bosch Gesellschaft fur Medizinische Forschung (RBMF), priority 2003, dated 2009):

Legend:
[1] = system: lamina propria mononuclear cells; assay: TUNEL assay for apoptotic lamina propria mononuclear cells in IBD patients; type: in vivo, human
Excerpt: FIG. 3. […] (a) LPMCs were isolated and stimulated with anti-CD2/CD28 plus IL-2 in the presence or absence of 6-MP for 5 days followed by FACS analysis. […] Data represent mean values±SEM from eight patients with IBD per group. […] Data are representative of 5-13 patients per group. Magnification, ×20 (bar=100 μm) (ce) and ×40 (bar=50 μm) (f-h). (i) Quantification of the percentage of apoptotic, TUNEL-positive LPMCs in patients with IBD receiving 6-MP as compared with untreated control patients. […] Data are mean values±SEM of 5-13 patients per group.

Ras = Ras activation assay (GTP-bound Ras, Raf RBD pull-down); type: cell-based, human; conditions: primary T cells
Description: (§1) Cell lysates were incubated with 10 μg/ml PAK-1 agarose (Rac assays) or 10 μg/mg Raf RBD agarose (Ras assay) for 60 minutes (Rac assays) or 30 minutes (Ras assays) at 4° C. Agarose beads were collected by centrifugation followed by denaturation, boiling of the samples, and SDS-PAGE analysis.

STAT-3 = assay: Rac1-bound STAT-3 (PAK pull-down, immunoblot); type: cell-based, human; conditions: primary T cells, 3 days
Description: FIG. 7. […] Purified CD4^+ T lymphocytes were stimulated with IL-2 and antibodies to CD3 or IL-2 plus antibodies to CD3 and CD28 for 3 days. […] GTP-bound Ras (Ras-GTP) was analyzed using Raf RGD to determine Ras activation. […] Similarly, Ras was obtained using Raf RGD agarose followed by analysis of [^3H]GTP-bound Ras by scintillation counting.
as §1

Rac1 = Rac1 activation assay (GTP-bound Rac1, PAK pull-down); type: cell-based, human; conditions: primary T cells, 3 days
Description: as §1

MEK = MEK phosphorylation and expression (Western blot, FACS); type: cell-based, human; conditions: 3 days
Description: (§2) FACS analysis: Analysis of peripheral blood T cells and lamina propria T lymphocytes by FACS (FACSscan; Becton Dickinson; Berlin, Germany) was performed using FITC-labeled murine antibodies to human CD4 (PharMingen), anti-mouse IgG1 isotype control antibodies (PharMingen), antibodies to bcl-xL and p mitogen-activated protein kinase kinase (pMEK) (Santa Cruz Biotech; Santa Cruz, Calif., USA), and goat anti-mouse Fab-FITC (DAKO). For intracellular staining analysis, T cells were fixed in PBS/4% paraformaldehyde (Merck; Munich, Germany) for 10 minutes at 4° C., washed twice in PBS, permeabilized in PBS/0.1% Triton X-100 (Sigma-Aldrich; Steinheim, Germany), and treated with mouse anti-human bcl-xL or MEK antibodies (2 μg per 5×10^5 cells) for 30 minutes on ice. T cells were washed twice in PBS/0.1% Triton X-100 before incubation with goat anti-mouse Fab-FITC (2 μl per 10^5 cells). Finally, T cells were washed twice in PBS before FACS analysis.
The cells were then washed in PBS, resuspended in 1 ml of T40E10N150 buffer (40 mM Tris-HCl [pH 7.9], 10 mM EDTA [pH 8.0], 150 mM NaCl), put on ice for 5 minutes, and centrifuged for 4 minutes at 4° C. at 1,000 rpm. The cell pellet was then resuspended on ice in 70 μl of buffer (10 mM HEPES [pH 8.0], 400 mM NaCl, 0.1 mM EDTA, 5% glycerol, 1 mM DTT, 1 mM PMSF) and centrifuged at 15,000 rpm for 30 minutes at 4° C. The protein concentrations in supernatants were determined with the Bio-Rad Protein Assay (Bio-Rad; Munich, Germany).
(§3) Western blots: Equal amounts of extract (30 μg) were added to 8 μl of electrophoresis sample buffer (Firma Roth; Karlsruhe, Germany). After boiling, the extracts were loaded on 15% SDS-PAGE gels and electrophoretically separated. Proteins were transferred to nitrocellulose membranes, and detection was performed with the ECL Western blotting analysis system (Amersham). […]

caspase-8 = assay: Fluorometric protease assay, caspase-8 activity in T lymphocytes; type: cell-based, human; conditions: CD3/CD28/rIL-2 stimulated T cells, 5 days; on average
Description: (§4) Caspase-3 proteolytic activity was determined at day 5 by the caspase-3/CPP 32 fluorometric protease assay (Bio Source; Worcester, Mass., USA) according to the manufacturer's protocol. Caspase-8 and caspase-9 proteolytic activity were assessed in parallel by the corresponding fluorometric protease assays (Bio Source).

bcl-xL = bcl-xL protein expression (Western blot, intracellular FACS); type: cell-based, human; conditions: activated T cells
Description: as §2
The cells were then washed in PBS, resuspended in 1 ml of T40E10N150 buffer (40 mM Tris-HCl [pH 7.9], 10 mM EDTA [pH 8.0], 150 mM NaCl), put on ice for 5 minutes, and centrifuged for 4 minutes at 4° C. at 1,000 rpm. […] The protein concentrations in supernatants were determined with the Bio-Rad Protein Assay (Bio-Rad; Munich, Germany). […]

caspase-3 = assay: Fluorometric protease assay, caspase-3 activity in T lymphocytes; type: cell-based, human; conditions: CD3/CD28/rIL-2 stimulated T cells, 5 days
Description: as §4

vav = vav protein expression (Western blot, immunocytochemistry); type: cell-based, human
Description: as §3
Immunocytochemical analysis: Immunocytochemistry was performed as described in Atreya et al., supra and Finotto et al., J. Exp. Med. 193:1247-1260 (2001)). […] Cells were rinsed with PBS, and nuclei were counterstained with Hoechst33342 blue for fluorescence (Molecular Probes; Burlingame, Calif., USA). Finally, cells were washed in PBS and analyzed with an Olympus Microscope. Six to ten high-power fields were finally analyzed in all patients per condition, and selected high-power fields were further analyzed by confocal laser microscopy.

[2] = all 47 CD patients
Description: Blood Sampling: Blood samples from patients were collected into EDTA tubes and the packed red blood cells (RBCs) were isolated by centrifugation within 6 hours after blood drawing. The RBCs were immediately frozen at −80° C. until analysis.
6-thioguanine nucleotides (6-TGN) and the methylated metabolites S-methyl-mercaptopurine ribonucleotides (6-MMPR) and S-methyl 6-thioguanosine nucleotides (MTGN) were quantified by a high-performance liquid chromatographic (HPLC) assay as described in Herrlinger et al., Aliment Pharmacol Ther. 19:1269-1276 (2004).
The concentrations of 6-thioguanosine 5′-mono-, di-, and triphosphate (TGMP, TGDP, and TGTP, respectively) were determined separately by the method described in Example 2 above. […] The 5′-phosphates were isolated, extracted, and oxidized as described by Rabel et al., Anal. Biochem. 224:315-322 (1995) with slight modifications. HPLC separation was achieved by reversed phase HPLC on a C18 column with phosphate buffer (20 mM, pH 6.8) and 5 mM tetrabutylammonium hydrogen sulfate/acetonitrile 84:16 (v/v) as the mobile phase. Using fluorescence detection, quantification of 6-thioguanosine nucleotides was performed at concentration ranges of 25 to 400 pmol/100 μL RBC for TGTP, 10 to 100 pmol/100 μL for TGDP, and 10 to 50 pmol/100 μL RBC for TGMP.

Structure (SMILES)	number of apoptotic cells ([1]; 6-MP-resistant patients with IBD)	number of apoptotic lamina propria mononuclear cells ([1]; successful 6-MP treatment vs untreated patients with IBD, P<0.01)	activation of Ras (GTP-bound Ras) (Ras)	Rac1-bound STAT-3 (STAT-3)	CD28 costimulation induced Rac1 activation (GTP-bound Rac1) (Rac1)	MEK phosphorylation (MEK)	induction of caspase-8 (caspase-8)	bcl-xL protein expression (bcl-xL)	caspase-3 activity (caspase-3)	expression of the guanosine exchange factor vav (vav)	TGMP levels in RBC [2]	expression levels of MEK (MEK)
Sc1ncnc2nc[nH]c12 [6-MP, 6-mercaptopurine]	no increase	significant increase	fail to modulate	Downregulation	strongly suppressed	suppresses	less pronounced	strongly suppressed	marked induction	induced		
Cn1cnc([N+](=O)[O-])c1Sc1ncnc2nc[nH]c12 [azathioprine, Azathioprine]			virtually unaffected	reduced	strongly suppressed	suppressed		strongly suppressed		induced	only detectable in traces	nearly unchanged
